The values that follow come from PMC3466269, “A Comprehensive Strategy to Discover Inhibitors of the Translesion Synthesis DNA Polymerase κ” (PLoS ONE, 2012).

Read-outs that look alike come from different tables or passages of the source.

The test system of one data set is pol κ. Particulars: cited from earlier work.
The target of data set [1] is T1, Human pol κ (residues 19–526) (Homo sapiens, UniProt Q9UBT6).
T1 construct: Human pol κ (residues 19–526) was purified as previously reported; made in house
T1 sequence (Q9UBT6 19-526): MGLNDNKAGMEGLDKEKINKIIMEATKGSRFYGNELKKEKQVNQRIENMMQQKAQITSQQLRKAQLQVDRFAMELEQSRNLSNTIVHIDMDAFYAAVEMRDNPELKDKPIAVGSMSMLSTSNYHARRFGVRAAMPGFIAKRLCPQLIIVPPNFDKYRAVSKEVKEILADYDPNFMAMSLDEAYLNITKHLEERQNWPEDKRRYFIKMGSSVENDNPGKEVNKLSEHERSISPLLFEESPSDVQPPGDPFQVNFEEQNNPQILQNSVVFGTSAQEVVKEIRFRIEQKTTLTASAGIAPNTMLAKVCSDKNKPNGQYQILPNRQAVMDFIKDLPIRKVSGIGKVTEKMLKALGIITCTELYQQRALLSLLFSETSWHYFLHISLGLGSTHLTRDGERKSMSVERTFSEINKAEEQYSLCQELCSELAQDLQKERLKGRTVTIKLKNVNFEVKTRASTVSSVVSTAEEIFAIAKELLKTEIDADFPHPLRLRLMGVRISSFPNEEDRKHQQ
In words: qHTS fluorescence-based DNA strand displacement assay. Type of data set: biochemical. The method, then: The substrate used in qHTS was made by the annealing of unlabeled oligodeoxynucleotide primer (5′-TCACCCTCGTACGACTC-3′) and TAMRA-labeled reporter strand (5′-TTTTTTTTTTGC-6-TAMRA-3′) to oligodeoxynucleotide template labeled with BHQ-2 (5′-BHQ-2-[…]-3′) as originally described by Dorjsuren et al.. The annealing mixture of unlabeled primer, TAMRA-labeled reporter, and BHQ-2-labeled template in buffer containing 50 mM Tris-HCl, pH 8.0, 100 mM NaCl, and 5 mM MgCl2 was heated at 95°C for 5 min and allowed to cool gradually to room temperature. The substrate was then stored at −20°C as 50 µM stock.
qHTS was performed in 50 mM Tris-HCI, pH 8.0, 40 mM NaCl, 1 mM MgCl2, 0.01% Tween-20, 2 mM DTT, and 100 µM dTTP. 3 µL of reagents (buffer as negative control and pol κ in the remaining plate at 10 nM final concentration) were dispensed by Flying Reagent Dispenser™ (FRD) (Beckman Coulter, Inc., Fullerton, CA) into a 1,536-well plate. Compounds were delivered as 23 nL in DMSO solution via pintool transfer; vehicle-only control consisted of 23 nL DMSO. The plate was incubated for 15 min at room temperature, and then 1 µL of substrate (50 nM final concentration) was added to initiate the reaction. The plate was immediately transferred into ViewLux reader for kinetic fluorescence data collection.
To lay the foundation for the methodologies to discover and characterize inhibitors of pol κ, we used a fluorescent reporter strand displacement assay (Figure 1 and [27]). The library of bioactive small molecules was tested as seven-point dilution series, with the final concentrations ranging from 2.9 nM to 57 µM.
A general note: qHTS replaces the single test concentration by a dilution series.

The target in data set [2] is T2, Human pol κ (Homo sapiens, UniProt Q9UBT6).
T2 construct: Human pol κ (residues 19–526) was purified as previously reported; made in house
T2 sequence (Q9UBT6 19-526): T1 sequence (Q9UBT6 19-526)
In words: Radioactive gel-based primer extension assay on non-damaged DNA, pol κ. In kind it is biochemical. The method, then:
(§1) The reactions with pol κ, pol η, and pol ι were carried out in the buffers containing 25 mM Tris-HCl, pH 7.5, 8 mM MgCl2, 10% glycerol, 100 µg/mL bovine serum albumin, and 5 mM DTT. Buffers for pol δ reactions contained 40 mM Hepes-KOH, pH 6.8, 10% glycerol, 200 µg/mL bovine serum albumin, 1 mM DTT, and 8 mM MgCl2. Final concentration of pol κ, pol η, pol ι, or pol δ in the reaction was 0.25 nM, 1 nM, 2.5 nM, or 4 nM, respectively. In this assay, a polymerase was preincubated with the compound for 15 min at room temperature. Primer extensions were then initiated by the addition of DNA substrate at final concentration of 5 nM and carried out for 30 min at room temperature in the presence of 100 µM dCTP and dGTP. The reactions were terminated by the addition of an equal volume of a dye solution containing 95% (v/v) formamide, 10 mM EDTA, 0.03% (w/v) xylene cyanol, and 0.03% (w/v) bromphenol blue. Reaction products were separated through a 15% acrylamide gel containing 8 M urea and visualized with a PhosphorImager screen. The ratio of extended primer to the total amount of primer was measured using ImageQuant 5.2 software to calculate the percentage of primer extended. IC50 values were determined by fitting the data to variable slope four-parameter equations using GraphPad Prism 5.

Data set [3] has as its target T2, Human pol κ. In words: Radioactive gel-based primer extension (TLS) past acrolein-derived ring-opened reduced form of γ-HOPdG, pol κ. Type of data set: biochemical. How it is done:
as §1
The primary role of pol κ is to bypass DNA lesions. Therefore, it was critical to establish the assays to investigate the capability of these compounds to inhibit lesion bypass activity of pol κ. Radioactive gel-based primer extension reactions were carried out using a DNA substrate containing a site-specific acrolein-derived ring-opened reduced form of γ-HOPdG, a lesion that pol κ can efficiently bypass in vitro [13].

A further data set concerns XP30RO cells (XP-V). In words: Cell survival assay, crystal violet, with or without UV. Particulars: crystal violet; inhibitor 6 h then UV 1.5, 4.5 or 7.5 J/m^2; candesartan cilexetil 24 µM.
The subject of a further data set is mouse pol ι. Further details: method as in PMID 19223184. Particulars: read-out: IC50 against pol ι; cited from earlier work.
The subject of a further data set is pol α. Further details: method as in PMID 20599777. Particulars: cited from earlier work.
For data set [4], the system named is double-stranded DNA ladder. In words: DNA intercalation assay (agarose gel shift of DNA ladder). In kind it is binding. Particulars: 0.75 or 3 nmol compound with 1.5 nmol DNA, 1% agarose gel. The method, then: Candesartan cilexetil or ethidium bromide was incubated with 1.5 nmol of double-stranded DNA ladder for 15 min at room temperature in the buffer containing 50 mM Tris-HCl, pH 8.0, 0.01% Tween-20, 1 mM DTT, and 40 mM NaCl. The reaction mixtures were run on 1% agarose gel and stained with ethidium bromide (0.5 µg/ml) for visualization.
Figure 7 The non-DNA-intercalating property of candesartan cilexetil. Candesartan cilexetil or ethidium bromide was incubated with double-stranded DNA ladder, and the reaction products were run on 1% agarose gel and stained with ethidium bromide. Lane 1: No compound. Lane 2: 0.75 nmol of candesartan cilexetil was incubated with 1.5 nmol DNA. Lane 3: 3 nmol of candesartan cilexetil was incubated with 1.5 nmol DNA. Lane 4: 0.75 nmol of ethidium bromide was incubated with 1.5 nmol DNA. Lane 5: 3 nmol of ethidium bromide was incubated with 1.5 nmol DNA.
A general note: A gel shift assay detects complexes by their altered migration in electrophoresis.

Procedure for XP30RO cells (XP-V): Cell survival assays were carried out using crystal violet assays and CellTiter-Glo Luminescent Cell Viability Assays. In crystal violet assays, XP30RO cells were plated into clear 96-well plates at a density of 8000 cells/mL and incubated overnight at 37°C, 5% CO2. The cells were treated with (1) inhibitor alone for 6 h or (2) UV alone or (3) inhibitor alone for 6 h followed by UV irradiation. After 2 days, cells were fixed with 4% paraformaldehyde and stained with 0.5% crystal violet dye. The dye was dissolved in 10% acetic acid and absorbance measurement was taken at OD595 nm with Infinite® M200 plate reader (Tecan, Durham, NC). For the CellTiter-Glo Luminescent Cell Viability Assays, the same procedures as crystal violet assays were used except that white/clear bottom 96-well plates were used and cell viability was measured following manufacturer's recommendations.
XP30RO cells were treated with 24 µM of candesartan cilexetil alone, UV alone at 1.5 J/m^2, 4.5 J/m^2, or 7.5 J/m^2, or in combination. Percent survival was calculated by normalizing the data using the cell survival of untreated cells. The data were obtained from three independent experiments.

For orientation: IC50 means the concentration that gives 50% inhibition. On to `CCCCCCCCCCCC(=O)Oc1cccc2c1C(=O)C=CC2=O` [C12:0-Acyl juglone], for which the concentration for half-maximal inhibition (IC50) in the data set with pol κ was 6.8 µM.

As for `CC1=CC[C@H]2C(C)(C)CCC[C@]2(C)[C@H]1CCCCCCCCCCCCCCCCC(=O)O` (relative stereo) [(1S*,4aS*,8aS*)-17-(1,4,4a,5,6,7,8,8a-octahydro-2,5,5,8a-tetramethylnaphthalen-1-yl)heptadecanoic acid], in the data set with pol κ, the concentration for half-maximal inhibition (IC50) is 7.2 µM.

`CC(C)c1ccc2c(c1)c(SC(C)(C)C)c(CC(C)(C)C(=O)O)n2Cc1ccc(Cl)cc1` [MK-886]: the 50% inhibitory concentration (IC50) in data set [1] (fluorescence strand displacement, 10 nM pol κ, 50 nM substrate, 100 µM dTTP, read-out: qHTS: IC50) is 30 µM; on Human pol κ [2] (primer extension, non-damaged DNA, 0.25 nM pol κ, average ± standard error, three experiments, read-out: gel: non-damaged: IC50), 13 ± 1.7 µM; at Human pol κ [3] (primer extension, adducted DNA, 0.25 nM pol κ, average ± standard error, three experiments, read-out: gel: ring-opened reduced form of γ-HOPdG: IC50) it was 14 ± 0.9 µM. Further, the “Effect on UV-induced cytotoxicity” value in the data set on XP30RO cells (XP-V) is given as “failed to enhance UV toxicity”.

As for `C/C=C/C(=O)C1=C(OC)OC(C)(/C=C/C=C/C(C)O)C1=O` (stereo not drawn) [Penicilliol A], the half-inhibitory concentration (IC50) with mouse pol ι was 19.8 µM.

As to `O=C(OC[C@H]1O[C@@H](OC(=O)c2cc(O)c(O)c(O)c2)[C@H](OC(=O)c2cc(O)c(O)c(O)c2)[C@@H](OC(=O)c2cc(O)c(O)c(O)c2)[C@@H]1OC(=O)c1cc(O)c(O)c(O)c1)c1cc(O)c(O)c(O)c1` [penta-1,2,3,4,6-O-galloyl-beta-D-glucose], the IC50 was 0.03 µM in the data set on pol κ and 0.013 µM in the data set with pol α.

As for `COC1=C(C(=O)CC(C)O)C(=O)C(C)(/C=C/C=C/C(C)O)O1` (stereo not drawn) [Penicilliol B], the IC50 in the data set on mouse pol ι was 32.5 µM.

As for `CC[n+]1c(-c2ccccc2)c2cc(N)ccc2c2ccc(N)cc21` [ethidium bromide], the “DNA migration pattern (intercalation)” value in data set [4] is listed as “bands shifted upwards”.

Consider `C/C=C/c1occ(C(=O)c2c(OC)cc(OC)cc2C(=O)OC)c(=O)c1OC` [3-O-methylfunicone], for which, in the data set with pol κ, the half-maximal inhibitory concentration (IC50) was 12.5 µM.

On to C18:1-Acyl juglone, for which, in the data set on pol κ, the IC50 was 8.1 µM.

As for `CC1=C(CC/C(C)=C/CCC2=CC[C@H](C3=CC(=O)O[C@H]3O)O[C@H]2O)C(C)(C)CCC1` [manoalide], the IC50 came to 9.5 µM in data set [1], 3.4 ± 0.9 µM on Human pol κ [2] and 5.6 ± 0.9 µM on Human pol κ [3]. Further, the “Effect on UV-induced cytotoxicity” value in the data set on XP30RO cells (XP-V) was “failed to enhance UV toxicity”.

With `CC1(C)[C@@H](O)CC[C@]2(C)[C@H]3C(=O)C=C4[C@@H]5C[C@@](C)(C(=O)O)CC[C@]5(C)CC[C@@]4(C)[C@]3(C)CC[C@@H]12` [Glycyrrhetinic acid], the half-maximal inhibitory concentration (IC50) in the data set with pol κ was 15.8 µM.
